From paper PMC6154339, “Synthesis, Characterization, Antimicrobial and Antiproliferative Activity Evaluation of Cu(II), Co(II), Zn(II), Ni(II) and Pt(II) Complexes with Isoniazid-Derived Compound” (Molecules : A Journal of Synthetic Chemistry and Natural …, 2017)
Values after ≈ are worked out from the molar mass of the structure shown. Read-outs that look alike come from different tables or passages of the source.

What was measured:
[1] = Solubility in compendial aqueous media; type: physicochemical; settings: 37 °C, 30 min, mean ± standard deviation, n = 3
Method: Solubility assessment was conducted in compendial aqueous solutions prepared according to United States Pharmacopoeia USP39/NF34): hydrochloric acid 0.1 N pH 1.2, acetate buffer pH 4.5 and phosphate buffer 6.8. These buffer systems are routinely used for screening of drug dissolution testing and they simulate the pH values of proximal gastrointestinal regions. The standard samples were prepared by diluting the stock solution of 80 µg/mL in dimethyl sulfoxide (with 0.2% pyridine, v/v) with corresponding media. The reagents were of analytical grade and used as received.
The assay was performed using a SpectraMax Plus 84 Plate reader reader (Sunnyvale, CA, USA), Molecular Devices LLC (US), equiped with SoftMax software version 6.4.2 (Sunnyvale, CA, USA). Separate plates were loaded with standard solutions in nine concentrations (0.2 to 80 µg/mL). For evaluation of the aqueous solubility, the samples were prepared in triplicate by adding 10 µL of the stock solution to the wells loaded with 190 µL of each buffer, using MultiScreen HTS plates (PCF, code MSSLBPC, Merck Millipore, Darmstadt, Germany). After 30 minutes of incubation at 37 ± 0.5 °C under agitation (250 rpm, IKA KS 4000 ic control, IKA, Staufen, Germany), the plates were filtrated under vacuum using a Vac-Man 96 Vacuum manifold (Promega Corporation, Madison, WI, USA). The solutions were collected in V-bottom polypropylene 96-well microplates (Greiner Bio-One, Kremsmünster, Austria). Volumes of 100 µL were transferred to UV-Star 96-well microplate with flat bottom (Chimney well, Grained Bio-One) and diluted by addition of 100 µL of the corresponding medium. The absorbance corresponding to each well was determined at fixed wavelengths: 280, 300, 320, 340, 360 and 800 nm. The reduced value of absorbance, calculated by the sum of the values recorded at the six wavelengths, were used for the calibration curve and subsequent determination of concentration in each solubility sample.

[2] = test system: Escherichia coli, ATCC 25922; assay: Antibacterial activity, serial dilutions in liquid broth (MIC/MBC); type: cell-based; settings: E. coli (G −)
From the text: (§1) All synthesized complexes and the ligand were screened for their in vitro antibacterial activity against Gram-positive bacteria (Staphylococcus aureus), Gram-negative bacteria (Escherichia coli, Klebsiella pneumoniae) and antifungal activity (Candida albicans) strains using the paper disc diffusion technique (for the qualitative determination) and the serial dilutions in liquid broth method (for determination of MIC). Furacillinum and nystatine were used as standard drugs.
(§2) The antibacterial activity of complexes and also of their prototype furacilin has been determined under liquid nutritive environment (2% of peptonate bullion (pH 7.0)) using the successive dilutions method. Escherichia coli, Klebsiella pneumoniae, and Staphylococcus aureus stems were used as reference culture for the in vitro experiment. The dissolution of studied substances in dimethylformamide, microorganism cultivation, suspension obtaining, determination of minimal inhibition concentration (MIC) and minimal bactericide concentration (MBC) have been carried out according to the method previously reported.

[3] = test system: Klebsiella pneumoniae, ATCC 31,488; assay: as above; type: cell-based; settings: K. pneumoniae (G −)
From the text: as §1, §2

[4] = test system: Staphylococcus aureus, ATCC 25923; assay: as above; type: cell-based; settings: S. aureus (G +)
From the text: as §1, §2

Candida albicans = assay: Antifungal (antimycotic) activity, liquid Sabouraud medium (MIC/MBC); type: cell-based; settings: C. albicans
From the text: as §1
Antimycotic properties of the complexes were investigated in vitro on laboratory stem Candida albicans. The activity has been determined in a liquid Sabouraud nutritive environment (pH 6.8). The inoculates were prepared from fungi stems which were harvested over 3–7 days. Their concentration in suspension is (2–4) × 10^6 colonies form unities in milliliter. Sowings for levures and micelles were incubated at 37 °C during 7 and 14 days, respectively.

[5] = test system: A375 human melanoma cell line; assay: Alamar blue cell viability assay; type: cell-based; settings: 48 h treatment, 10 µM, relative to untreated control
Method: (§3) Compounds HL, 1, 5, 6 and 8 were dissolved in dimethyl sulfoxide (DMSO; Sigma-Aldrich, Ayrshire, UK) and stored at 2–8 °C. Compounds 2, 3, 4 and 7 were dissolved in pyridine (Fluka, Munich, Germany). A stock solution of 10 mM in the proper solvents was prepared; as for the final concentration (10 µM), successive dilution of the stock solution with culture medium was made.
(§4) The breast cancer cell lines were cultured as follow: MCF-7 human breast cancer cell line (ATCC, Rockville, MD, USA) was cultured in EMEM (Sigma Aldrich, Munich, Germany) supplemented with 10% FCS (fetal bovine serum, PromoCell, Heidelberg, Germany), 1% penicillin-streptomycin (Pen/Strep, 10,000 IU/mL; PromoCell, Heidelberg, Germany), 1% nonessential amino acids and 1% glutamine (PromoCell, Heidelberg, Germany). SKBR-3 human breast cancer cell line was cultured in McCoy’s 5a Medium Modified (Sigma Aldrich, Munich, Germany) supplemented with 10% FCS (fetal bovine serum, PromoCell, Heidelberg, Germany), 1% penicillin-streptomycin (Pen/Strep, 10,000 IU/mL; PromoCell, Heidelberg, Germany). A375 human melanoma cell line was cultured in DMEM containing 15% FCS (fetal bovine serum, PromoCell, Heidelberg, Germany) and 1% penicillin-streptomycin (Pen/Strep, 10,000 IU/mL; PromoCell, Heidelberg, Germany). Cells were maintained at an atmosphere of 5% CO2 at 37 °C. NCI-H1573 lung adenocarcinoma cell line was cultured in RPMI-1640 Medium (ATCC, Rockville, MD, USA) supplemented with 10% FCS (fetal bovine serum, PromoCell, Heidelberg, Germany), 1% penicillin-streptomycin (Pen/Strep, 10,000 IU/mL; PromoCell, Heidelberg, Germany).
(§5) All tested cell lines were seeded onto a 96-well microplate ([…]) and left overnight to attach to the bottom of the well. After 24 h, the amount of 150 μL of the tested substances dissolved into the culture medium was added and cells were incubated for 48 h. After the incubation period, a volume of 15 μL of the Alamar blue (BioSource, Camarillo, CA, USA) solution was added. After another 10 h of incubation at 37 °C, the samples were spectrophotometrically analyzed using a microplate reader. The wave lengths used were 570 nm and 600 nm, respectively. Wells with untreated cells were used as controls. The highest concentration of DMSO and pyridine (0.1%) used to prepare stock solutions was also tested, in order to identify the solvent activity. All measurements were performed in triplicate and data were presented as mean ± standard deviation.

[6] = test system: MCF-7 human breast cancer cell line; assay: Alamar blue cell viability assay; type: cell-based; settings: 48 h treatment, 10 µM, relative to untreated control
Method: as §3, §4, §5

[7] = test system: SKBR-3 human breast cancer cell line; assay: Alamar blue cell viability assay; type: cell-based; settings: 48 h treatment, 10 µM, relative to untreated control
Method: as §3, §4, §5

[8] = Qualitative solubility in organic solvents; type: physicochemical
[9] = test system: NCI-H1573 lung adenocarcinoma cell line; assay: Alamar blue cell viability assay; type: cell-based; settings: 48 h treatment, 10 µM, relative to untreated control
Method: as §3, §4, §5

[10] = Hydrochloric Acid 0.1 N (pH = 1.2)

Compound | solubility in compendial media ([1]; Acetate Buffer (pH = 4.5)) | solubility in compendial media [1, 10] | solubility in compendial media ([1]; Phosphate Buffer (pH = 6.8)) | MBC [2] | MIC [2] | MBC [3] | MIC [3] | MBC [4] | MIC [4] | MBC (Candida albicans) | MIC (Candida albicans) | Viability % [5] | Viability % [6] | Viability % [7] | solubility in organic solvents (qualitative) [8] | LC50 (Daphnia magna; incubation period 24 h) | LC50 (Daphnia magna; incubation period 48 h) | Viability % [9] | LC50 of copper acetate relative to the perchlorate (Daphnia magna; after 24 h of exposure, printed as 'lower')
COc1cccc(C=NNC(=O)c2ccncc2)c1[O-].O.O.[Cl-].[Cu+2] [complex 1, [Cu(L)(Cl)]·2H2O] | 1.89 ± 0.20 µg/mL | 2.34 ± 0.28 µg/mL | <0.2 µg/mL | 500 µg/mL | 500 µg/mL | 500 µg/mL | 500 µg/mL | 0.03 µg/mL | 0.015 µg/mL | 15 µg/mL | 7 µg/mL | 84.43% | 2.47% | 25.24% | soluble in acetone, acetonitrile, DMF and DMSO, and is partially soluble in ethanol and methanol | 394 µM | 69.5 µM | – | –
C[C@@H]1[C@H](O)[C@@H](C)/C=C/C=C/CC/C=C/C=C/C=C/C=C/C(O[C@H]2O[C@H](C)[C@@H](O)[C@H](N)[C@@H]2O)CC2O[C@](O)(CC(O)C(O)CCC(O)CC(O)CC(O)CC(=O)O[C@H]1C)CC(O)C2C(=O)O (stereo partly drawn) [Nystatine, reference compound] | – | – | – | – | – | – | – | – | – | 80 µg/mL (≈ 86.4 µM) | 80 µg/mL (≈ 86.4 µM) | – | – | – | – | – | – | – | –
[Cl][Ni][Cl] [NiCl2] | – | – | – | – | – | – | – | – | – | – | – | – | – | – | – | 100 µM | 16.2 µM | – | –
COc1cccc(C=NNC(=O)c2ccncc2)c1[O-].[Cl-].[Ni+2] [complex 7, [Ni(L)(Cl)]] | 1.91 ± 0.26 µg/mL | 2.26 ± 0.44 µg/mL | <0.2 µg/mL | 500 µg/mL | 500 µg/mL | 500 µg/mL | 500 µg/mL | 0.7 µg/mL | 0.7 µg/mL | 125 µg/mL | 125 µg/mL | 98.97% | 47.75% | 21.11% | soluble in methanol, pyridine, DMF and DMSO, and is partially soluble in acetonitrile, acetone | 351 µM | 210 µM | – | –
[Cl][Cu][Cl] [CuCl2] | – | – | – | – | – | – | – | – | – | – | – | – | – | – | – | 4.23 µM | 0.97 µM | – | –
[Cl-].[Cl-].[Zn+2] [ZnCl2] | – | – | – | – | – | – | – | – | – | – | – | – | – | – | – | 15.4 µM | 0.89 µM | – | –
COc1cccc(C=NNC(=O)c2ccncc2)c1[O-].O.[Cu+2].[O-][Cl+3]([O-])([O-])[O-] [complex 4, [Cu(L)(ClO4)]·H2O] | 1.67 ± 0.28 µg/mL | 0.82 ± 0.6 µg/mL | <0.2 µg/mL | 500 µg/mL | 250 µg/mL | 500 µg/mL | 250 µg/mL | 0.7 µg/mL | 0.7 µg/mL | 0.7 µg/mL | 0.7 µg/mL | 0.70% | 3.43% | 48.72% | soluble in pyridine and is partially soluble in ethanol, methanol, acetonitrile, acetone, DMF and DMSO | – | – | 10.05% | –
NC(=O)N/N=C/c1ccc([N+](=O)[O-])o1 [Furacillinum, reference compound] | – | – | – | 37.5 µg/mL (≈ 189 µM) | 18.7 µg/mL (≈ 94.4 µM) | >300 µg/mL | >300 µg/mL | 9.35 µg/mL (≈ 47.2 µM) | 9.35 µg/mL (≈ 47.2 µM) | – | – | – | – | – | – | – | – | – | –
COc1cccc(C=NNC(=O)c2ccncc2)c1[O-].COc1cccc(C=NNC(=O)c2ccncc2)c1[O-].[Zn+2] [complex 6, [Zn(L)2]] | 1.56 ± 0.82 µg/mL | 1.65 ± 0.06 µg/mL | <0.2 µg/mL | 250 µg/mL | 125 µg/mL | 250 µg/mL | 250 µg/mL | 125 µg/mL | 63 µg/mL | 125 µg/mL | 125 µg/mL | 71.66% | 17.72% | 61.43% | soluble in pyridine, DMF and DMSO, and is partially soluble in ethanol, methanol, acetonitrile, acetone | – | – | 33.77% | –
[Cu+2].[O-][Cl+3]([O-])([O-])[O-].[O-][Cl+3]([O-])([O-])[O-] [Cu(ClO4)2] | – | – | – | – | – | – | – | – | – | – | – | – | – | – | – | 0.39 µM | – | – | –
CC(=O)[O-].CC(=O)[O-].[Cu+2] [Cu(CH3COO)2] | – | – | – | – | – | – | – | – | – | – | – | – | – | – | – | 9.68 µM | 0.44 µM | – | about 25 fold
[Cl][Pt-2]([Cl])([Cl])[Cl].[K+].[K+] [K2PtCl4] | – | – | – | – | – | – | – | – | – | – | – | – | – | – | – | 27.7 µM | 5.63 µM | – | –
COc1cccc(C=NNC(=O)c2ccncc2)c1[O-].[Cl-].[Pt+2] [complex 8, [Pt(L)(Cl)]] | 2.49 ± 0.09 µg/mL | 1.33 ± 0.05 µg/mL | <0.2 µg/mL | 250 µg/mL | 125 µg/mL | 500 µg/mL | 250 µg/mL | 0.7 µg/mL | 0.7 µg/mL | 63 µg/mL | 63 µg/mL | 73.45% | 21.71% | – | soluble in DMF and DMSO, and is partially soluble in ethanol, methanol, acetonitrile, acetone | 469 µM | 78.2 µM | 20.34% | –
O=[N+]([O-])[O-].O=[N+]([O-])[O-].[Cu+2] [Cu(NO3)2] | – | – | – | – | – | – | – | – | – | – | – | – | – | – | – | 7.43 µM | 1.39 µM | – | –
